Data reported in US7199138B2, “Substituted anthranilamides for controlling invertebrate pests” (E. I. du Pont de Nemours and Company, priority 2001, dated 2007).

melting point: 231 to 233 °C
SMILES: Cc1cc(NC(=O)c2ccccc2)cc(C(=O)NC(C)C)c1NC(=O)c1cc(C(F)(F)F)nn1-c1ncccc1Cl
